Assay results taken from patent US8614064B2, “Methods of diagnosing atherosclerosis by measuring ApoCI” (The Johns Hopkins University, priority 2003, dated 2013).

Columns and labels:
[1] = test system: human aortic smooth muscles cells (ASMC); assay: Fluorescence microscope quantitative assay of apoptotic death (DAPI staining); format: cell-based; settings: C2-ceramide 10 μmol/L + ApoCI 2.5 μg/mL + GW4869 20 μmol/L, 24 h; control 2.2%
Description: (§1) FIGS. 1A-1C depict the effect of apolipoproteins on apoptosis in human aortic smooth muscles cells (ASMC). ASMC were grown on sterilized glass cover slips and incubated for 24 hours with media alone (control), ApoCIII (negative control, 2.5 μg/mL medium), ApoCI (2.5 μg/mL medium), ApoCI-enriched HDL (1 μg apoA-I/mL medium), or ApoCI-poor HDL (5 μg apoA-I/mL medium) for 24 hours. Cells were then fixed with ethanol-acetic acid (3:1 volume/volume) and washed 3 times with phosphate-buffered saline. The cells were then stained with DAPI reagent, mounted on a glass cover slide, and subjected to fluorescence microscopy. FIG. 1A: The nucleus of normal cells stains blue and the nucleus of apoptotic cells stains is fragmented white. FIG. 1B: 300 to 500 cells in each sample were counted and the percent of apoptotic cells was plotted. Values are mean±SD; **P<0.01, ***P<0.001. FIG. 1C: DNA ladder assay. Confluent cultures of ASMC were incubated with control medium alone, ApoCI (2.5 μg/mL medium), ApoCIII (negative control, 2.5 μg/mL medium), and TNF-α (positive control, 20 ng/mL medium). Genomic DNA was extracted and 10 μg DNA was subjected to agarose gel electrophoresis. The gels were calibrated with commercially available DNA standards. After electrophoresis, the gels were stained with ethidium bromide and then photographed.
FIGS. 2A-2B depict the effect of ApoCI, the N-SMase inhibitor, GW4869, and C-2 ceramide on apoptosis in cultured human ASMC. FIG. 2A: ASMC (1×10^3) were seeded on sterilized glass cover slips and grown in tissue culture medium with 10% fetal calf serum for 48 hours. […] Thirty minutes later, vehicle DMSO, ApoCI (2.5 μg/mL), or C2-ceramide (10 μmol/L) were added to dishes, and the incubation continued for 24 hours. The cells were then fixed with ethanol-acetic acid (3:1 v/v), stained with DAPI reagent, assessed by fluorescent microscopy, and photographed. Top to bottom: control cells; cells incubated with ApoCI± the N-SMase inhibitor, GW4869; and cells incubated with ApoCI GW4869, and C2-ceramide. FIG. 2B: The DAPI-stained ASMC from the four experimental conditions described was analyzed for quantitative apoptosis. Mean (SD) from 4 experiments. *P<0.05.
Human AoSMC that were negative for mycoplasma, hepatitis B and C and HIV-1 were purchased from Clonetics (San Diego, Calif.) and cultured in Dulbecco's minimal essential medium (Invitrogen, Carlsbad, Calif.) with 10% fetal bovine serum (Hyclone, Salt Lake City, Utah), 100-units/ml penicillin, 100-μg/ml streptomycin to confluence. The cells were incubated in serum-free medium for 30 min prior to initiating the experiments. Cells were then washed and harvested in PBS, and centrifuged at 1500 rpm for 5 min at 4° C. Protease inhibitors were then added and the pellets stored frozen at −30° C. until use.
1×10^3 cells were grown on sterilized glass cover slips in 6-well trays and treated with ApoCI (2.5 μg/ml medium), ApoCIII (2.5 μg/ml medium), tumor necrosis factor (TNF)-α (30 ng/ml), ApoCI-enriched HDL (1 μg apoA-I/ml medium) and ApoCI-poor HDL (5 μg apoA-I/ml medium). After 24 h incubation, the medium was removed, cells fixed with ethanol:acetic acid […] and stored at 4° C. Next, the fixing solution was removed and cells stored frozen at −30° C. Cover slips were mounted on the microscope slides and stained with DAPI reagent (4,6-diamino-2-phenylindol, dihydrochloride). The stained nuclei were visualized by fluorescence microscopy (Zeiss Axiovert 25). Apoptotic cells were determined after counting—500 cells in a double blind fashion.

[2] = test system: human aortic smooth muscles cells (ASMC); assay: DNA laddering assay; format: cell-based; settings: ApoCI or ApoCIII 2.5 μg/mL, TNF-α positive control
Description: as §1
Cells were treated with either TNF-α (30 ng/ml), ApoCI or ApoCIII (2.5 μg/ml) for 6 h. The cells were then washed twice with minimal essential medium and harvested with buffer (10 mM HEPES, pH 7.4. 5 mM EDTA, 0.25 mM EGTA, 50 mM NaF, 5 mM β-mercaptoethanol, 0.35 M sucrose, 0.1% Nonidet and protease inhibitors, 1 mM phenylmethylsulfonyl fluoride, 2 μg/ml leupeptin and 5 μg/ml pepstatin), and pelleted. Genomic DNA was prepared employing standard protocol. Genomic DNA was subjected to electrophoresis, stained with ethidium bromide and the gel was photographed. The gel was calibrated using DNA fragments of known molecular weight.

[3] = test system: N-SMase; assay: Neutral sphingomyelinase assay in treated ASMC ([14C]sphingomyelin substrate); format: cell-based, human; settings: 5 min; ApoCI 2.5 μg/mL, TNF-α 20 ng/mL, ApoCI-enriched HDL 1 μg apoA-I/mL; control 22 nmol/h per mg protein = 100%
Description: FIGS. 3A-3C depict the effects of ApoCI, ApoCIII, TNF-α, ApoCI-enriched HDL, and ApoCI-poor HDL on the activity of N-SMase in ASMC. Confluent cultures of ASMC were preincubated for 30 minutes with serum-free (control) medium, then ApoCI (2.5 μg/mL medium), ApoCIII (2.5 μg/mL medium), TNF-α (20 ng/mL medium) (FIG. 3A, top), or ApoCI-enriched HDL (1 μg apoAI/mL medium), or ApoCI-poor HDL (5 μg apoA-I/mL medium) (FIG. 3B, middle) were added individually to cells. The cells were then incubated and harvested at the indicated time points, and the activity was of N-SMase determined using [^14C]sphingomyelin as substrate. The N-SMase activity in control cells was 22 nmol/h per milligram cell protein, and this value was considered as 100% activity. In a separate experiment (FIG. 3C bottom), cells (0.5×10^5) were seeded in P60 Petri dishes and grown in DMEM supplemented with 10% fetal bovine serum for 5 days. After preincubation of cells for 30 minutes in serum-free medium, increasing amounts of ApoCI were added. After incubation for 10 minutes, cells were harvested, and N-SMase activity was measured.
After stimulation with ApoCI ApoCI-enriched HDL and ApoCI-poor HDL, the cells were washed with 5 ml of PBS and harvested. The pellets were stored frozen at −70° C. and resuspended in 0.5 ml of buffer (100 mM Tris-HCl pH 7.4, 0.1% Triton X-100, 1 mM EDTA and protease inhibitors). The cell suspension was sonicated 3 times (3-s bursts) using a probe sonicator and centrifuged at 500×g at 4° C. for 5 min. The supernatant was used as the enzyme source. 100 μg of protein was assayed for neutral sphingomyelinase activity in a buffer consisting of 50 mM Tris-HCl, pH 7.4, 0.1% Triton X-100, 0.1 mg of bovine serum albumin, 5 mM MgCl2 and […] of [^14C]sphingomyelin (specific activity 50 mCi/mmol, from American Radiolabled Chemicals (St. Louis, Mo.). The samples were incubated at 37° C. for 2 h and terminated with the addition of 1 ml of 10% trichloroacetic acid. The precipitate was pelleted (1000×g at 4° C. for 30 min) and 1 ml of the supernatant was extracted with 1 ml of anhydrous diethyl ether. About 0.5 ml of the aqueous phase was removed for liquid scintillation counting (Ghosh, N., and Chatterjee, S. (1998) J. Biol. Chem. 264, 12554-12561).

Row | Molecule | percent apoptotic cells with C2-ceramide added to ApoCI and GW4869 [1] [%] | DNA laddering on agarose gel (FIG. 1C) [2] | increase in the activity of N-SMase at 5 minutes [3] [fold]
1 | CCCCCCCCCCCCC/C=C/[C@@H](O)[C@H](CO)NC(C)=O [C2-ceramide] | ~12.5 |  | 
2 | tumor necrosis factor α [TNF-α] |  | exhibited DNA laddering | ~2
